{
  "source": "patent US20170314074A1",
  "about": "“LPA-ASSOCIATED PROTEIN AND RNA EXPRESSION” (Intermune, Inc., priority 2014, published 2017)",
  "key": {"[1]": {"test_system": "normal human lung fibroblasts", "test": "mRNA expression after LPA induction, Affymetrix Human Gene ST arrays, fibroblasts (Table 4A)", "format": "cell-based", "conditions": "fibroblasts; 1 μM LPA; average of 3 experiments", "experimental": "(§1) Changes in gene expression after 3 hours of LPA induction were profiled on Affymetrix Human Gene ST 2.0 microarrays; differentially expressed genes identified by ANOVA with FDR <0.05 and fold-change >1.2. Process networks associated with differentially expressed genes were defined using MetaCore. Changes in secreted protein expression after 24 hours of LPA induction were profiled on an aptamer-based proteomic platform (1129 proteins); differentially expressed proteins identified by t-test.\n(§2) Total RNA was isolated from normal human lung fibroblasts, human bronchial epithelial cells, and human pulmonary alveolar epithelial cells treated for […] with LPA and/or LPAR1 inhibitor. Each treatment condition was assayed in triplicate. Samples were profiled on Affymetrix Human Gene ST Arrays 1.0 and/or 2.0 after preparation using the Ambion WT Expression Kit according to manufacturers' instructions.\n(§3) Data normalization and all subsequent analyses were performed in Partek Genomics Suite (Partek, St. Louis, Mo.). Data were normalized using the Robust Multi-array Average (RMA) algorithm. Differentially expressed genes were identified by ANOVA with correction for multiple comparisons with p-value with FDR<0.05. A fold-change cut-off was not strictly applied, although the majority of the differentially expressed genes identified have fold-changes greater than 1.2. Genes were included if they were statistically significant for (1) LPA-induction and (2) response to treatment with an LPAR1 inhibitor.\nIn Tables 1-5 The differentially expressed secreted proteins set forth in Tables 1, 2, and 5 and the differentially expressed mRNAs set forth in Table 3 and 4 were identified by visual inspection of individual dot-plots.\nFor the gene and protein expression analysis primary fibroblasts (NHLF product #CC-2512 from Lonza group LTD) and primary epithelial cells (NHBE Product #CC-2540 from Lonza; HPAEpiC Product #3200 from Sciencell (USA, California)) were cultured as recommended by the manufacturer, except they were cultured on collagen coated plates. As part of the induction protocol cells were starved overnight in low (0.2 or 0.1% serum) or no serum (0%), prior to stimulation with LPA."}, "[2]": {"test_system": "fibroblasts and/or epithelial cells", "test": "mRNA expression after LPA induction, Affymetrix Human Gene ST arrays, fibroblasts and/or epithelial cells (Table 3)", "format": "cell-based", "experimental": "as §1, §2\nas §3, with “Genes were included if they were statistically significant for (1) LPA-induction and (2) response to treatment with an LPAR1 inhibitor.” left out"}},
  "data": [
    {"substance": "lysophosphatidic acid [LPA]", "values": [
      {"measurement": "Effect of 1 μM LPA (fold-change), BIRC3 mRNA", "setting": "[1]", "value": 3.17, "unit": "fold-change"},
      {"measurement": "Effect of 1 μM LPA (fold-change), CHIC2 mRNA", "setting": "[1]", "value": 2.36, "unit": "fold-change"},
      {"measurement": "Effect of 1 μM LPA (fold-change), CNST mRNA", "setting": "[1]", "value": 2.26, "unit": "fold-change"},
      {"measurement": "Effect of 1 μM LPA (fold-change), CTGF mRNA", "setting": "[1]", "value": 4.71, "unit": "fold-change"},
      {"measurement": "Effect of 1 μM LPA (fold-change), CYR61 mRNA", "setting": "[1]", "value": 6.52, "unit": "fold-change"},
      {"measurement": "Effect of 1 μM LPA (fold-change), DKK1 mRNA", "setting": "[1]", "value": 6.36, "unit": "fold-change"},
      {"measurement": "Effect of 1 μM LPA (fold-change), DUSP1 mRNA", "setting": "[1]", "value": 2.76, "unit": "fold-change"},
      {"measurement": "Effect of 1 μM LPA (fold-change), EFNB2 mRNA", "setting": "[1]", "value": 2.61, "unit": "fold-change"},
      {"measurement": "Effect of 1 μM LPA (fold-change), GPR37 mRNA", "setting": "[1]", "value": 2.80, "unit": "fold-change"},
      {"measurement": "Effect of 1 μM LPA (fold-change), HAS2 mRNA", "setting": "[1]", "value": 2.61, "unit": "fold-change"},
      {"measurement": "Effect of 1 μM LPA (fold-change), HBEGF mRNA", "setting": "[1]", "value": 5.11, "unit": "fold-change"},
      {"measurement": "Effect of 1 μM LPA (fold-change), IER3 mRNA", "setting": "[1]", "value": 2.94, "unit": "fold-change"},
      {"measurement": "Effect of 1 μM LPA (fold-change), IL6 mRNA", "setting": "[1]", "value": 4.19, "unit": "fold-change"},
      {"measurement": "Effect of 1 μM LPA (fold-change), KPRP mRNA", "setting": "[1]", "value": 4.31, "unit": "fold-change"},
      {"measurement": "Effect of 1 μM LPA (fold-change), KRTAP1-5 mRNA", "setting": "[1]", "value": 6.49, "unit": "fold-change"},
      {"measurement": "Effect of 1 μM LPA (fold-change), KRTAP4-12 mRNA", "setting": "[1]", "value": 3.23, "unit": "fold-change"},
      {"measurement": "Effect of 1 μM LPA (fold-change), LIF mRNA", "setting": "[1]", "value": 5.15, "unit": "fold-change"},
      {"measurement": "Effect of 1 μM LPA (fold-change), MCP-1/CCL2 mRNA", "setting": "[1]", "value": 5.58, "unit": "fold-change"},
      {"measurement": "Effect of 1 μM LPA (fold-change), MIR218-1", "setting": "[1]", "value": 3.07, "unit": "fold-change"},
      {"measurement": "Effect of 1 μM LPA (fold-change), PAI-1 mRNA", "setting": "[1]", "value": 2.28, "unit": "fold-change"},
      {"measurement": "Effect of 1 μM LPA (fold-change), PDCD1LG2 mRNA", "setting": "[1]", "value": 2.52, "unit": "fold-change"},
      {"measurement": "Effect of 1 μM LPA (fold-change), PTX3 mRNA", "setting": "[1]", "value": 2.34, "unit": "fold-change"},
      {"measurement": "Effect of 1 μM LPA (fold-change), SERPINB2 mRNA", "setting": "[1]", "value": 2.44, "unit": "fold-change"},
      {"measurement": "Effect of 1 μM LPA (fold-change), TNFAIP3 mRNA", "setting": "[1]", "value": 3.44, "unit": "fold-change"},
      {"measurement": "Effect of 1 μM LPA (fold-change), TXNIP mRNA", "setting": "[1]", "value": "−3.79", "unit": "fold-change"},
      {"measurement": "Effect of 1 μM LPA (fold-change), UGCG mRNA", "setting": "[1]", "value": 2.41, "unit": "fold-change"},
      {"measurement": "Effect of 1 μM LPA (fold-change), VGLL3 mRNA", "setting": "[1]", "value": 2.96, "unit": "fold-change"},
      {"measurement": "changes in gene expression induced by LPA", "setting": "[2]", "value": "induced significant changes in gene expression"}
    ]}
  ]
}
